Molecular target: (recombinant) catalytic domain of human Bub1 (amino acids 704-1085) (Homo sapiens (Human), UniProt O43683)
Test: Bub1 kinase assay (TR-FRET)
Format: biochemical
Details: ATP 10 μM final, peptide substrate 1 μM final, 60 min at 22° C., read-out: Biological Assay: Bub1 kinase assay median IC50
Outline: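 Readout was TR-FRET between a Eu-labeled antibody complex recognizing phosphoserine and streptavidin-XL665 on the biotinylated peptide, after EDTA stop and 1 h at 22° C. The kinase reaction ran for 60 min at 22° C. Values are means or medians of repeat tests, from 4-parameter fits normalized to enzyme-free and inhibitor-free controls.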

(recombinant) catalytic domain of human Bub1 (amino acids 704-1085), sequence (O43683 704-1085): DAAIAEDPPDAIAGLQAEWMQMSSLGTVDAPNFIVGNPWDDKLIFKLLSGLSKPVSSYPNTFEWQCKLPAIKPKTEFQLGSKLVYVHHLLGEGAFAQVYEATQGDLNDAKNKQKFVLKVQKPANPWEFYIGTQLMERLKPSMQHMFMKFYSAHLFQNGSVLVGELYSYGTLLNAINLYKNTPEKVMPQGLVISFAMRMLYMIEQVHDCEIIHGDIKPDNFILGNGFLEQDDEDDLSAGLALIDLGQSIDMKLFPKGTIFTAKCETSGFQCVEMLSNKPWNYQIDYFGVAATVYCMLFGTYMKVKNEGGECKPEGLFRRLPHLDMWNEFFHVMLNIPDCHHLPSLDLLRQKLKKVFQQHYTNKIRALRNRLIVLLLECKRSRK

Structure (SMILES) | IC50
CC1(C)CC(=O)c2c([nH]c(-c3ccncc3)c2Nc2ccc3cn[nH]c3c2)C1 [Example 74, 3-(1H-indazol-6-ylamino)-6,6-dimethyl-2-(pyridin-4-yl)-1,5,6,7-tetrahydro-4H-indol-4-one] | 82.3 nM
CC1(C)CC(=O)c2c([nH]c(-c3ccncc3)c2Nc2ccnc3ccccc23)C1 [Example 75, 6,6-dimethyl-2-(pyridin-4-yl)-3-(quinolin-4-ylamino)-1,5,6,7-tetrahydro-4H-indol-4-one] | 14100 nM
CC1(C)CC(=O)c2c([nH]c(-c3ccncc3)c2Nc2cc(Cl)ccc2Cl)C1 [Example 78, 3-[(2,5-dichlorophenyl)amino]-6,6-dimethyl-2-(pyridin-4-yl)-1,5,6,7-tetrahydro-4H-indol-4-one] | 6950 nM
CC1(C)CC(=O)c2c([nH]c(-c3ccncc3)c2Nc2cccc(C#N)c2)C1 [Example 79, 3-{[6,6-dimethyl-4-oxo-2-(pyridin-4-yl)-4,5,6,7-tetrahydro-1H-indol-3-yl]amino}benzonitrile] | 133 nM
CC1(C)CC(=O)c2c([nH]c(-c3ccncc3)c2Nc2cccc(OCc3ccccc3)c2)C1 [Example 80, 3-{[3-(benzyloxy)phenyl]amino}-6,6-dimethyl-2-(pyridin-4-yl)-1,5,6,7-tetrahydro-4H-indol-4-one] | 188 nM
Cc1ccc(F)c(Nc2c(-c3ccncc3)[nH]c3c2C(=O)CC(C)(C)C3)c1 [Example 82, 3-[(2-fluoro-5-methylphenyl)amino]-6,6-dimethyl-2-(pyridin-4-yl)-1,5,6,7-tetrahydro-4H-indol-4-one] | 510 nM
CC(C)c1cccc(Nc2c(-c3ccncc3)[nH]c3c2C(=O)CC(C)(C)C3)c1 [Example 85, 6,6-dimethyl-3-{[3-(propan-2-yl)phenyl]amino}-2-(pyridin-4-yl)-1,5,6,7-tetrahydro-4H-indol-4-one] | 73.5 nM

Results, then the molecule that gave them:

IC50 | Structure (SMILES)
4270 nM | COc1ccc(OC)c(Nc2c(-c3ccncc3)[nH]c3c2C(=O)CC(C)(C)C3)c1 [Example 76, 3-[(2,5-dimethoxyphenyl)amino]-6,6-dimethyl-2-(pyridin-4-yl)-1,5,6,7-tetrahydro-4H-indol-4-one]
1550 nM | CC1(C)CC(=O)c2c([nH]c(-c3ccncc3)c2Nc2cc(Cl)cc(Cl)c2)C1 [Example 77, 3-[(3,5-dichlorophenyl)amino]-6,6-dimethyl-2-(pyridin-4-yl)-1,5,6,7-tetrahydro-4H-indol-4-one]
44.3 nM | Cc1cc(Nc2c(-c3ccncc3)[nH]c3c2C(=O)CC(C)(C)C3)ccc1F [Example 81, 3-[(4-fluoro-3-methylphenyl)amino]-6,6-dimethyl-2-(pyridin-4-yl)-1,5,6,7-tetrahydro-4H-indol-4-one]
293 nM | CCc1ccc(Nc2c(-c3ccncc3)[nH]c3c2C(=O)CC(C)(C)C3)cc1 [Example 83, 3-[(4-ethylphenyl)amino]-6,6-dimethyl-2-(pyridin-4-yl)-1,5,6,7-tetrahydro-4H-indol-4-one]
127 nM | CCc1ccccc1Nc1c(-c2ccncc2)[nH]c2c1C(=O)CC(C)(C)C2 [Example 84, 3-[(2-ethylphenyl)amino]-6,6-dimethyl-2-(pyridin-4-yl)-1,5,6,7-tetrahydro-4H-indol-4-one]
5460 nM | CC(C)c1ccc(Nc2c(-c3ccncc3)[nH]c3c2C(=O)CC(C)(C)C3)cc1 [Example 86, 6,6-dimethyl-3-{[4-(propan-2-yl)phenyl]amino}-2-(pyridin-4-yl)-1,5,6,7-tetrahydro-4H-indol-4-one]
1780 nM | CC1(C)CC(=O)c2c([nH]c(-c3ccncc3)c2Nc2cc(Cl)ccc2F)C1 [Example 87, 3-[(5-chloro-2-fluorophenyl)amino]-6,6-dimethyl-2-(pyridin-4-yl)-1,5,6,7-tetrahydro-4H-indol-4-one]
2610 nM | CC(C)c1ccccc1Nc1c(-c2ccncc2)[nH]c2c1C(=O)CC(C)(C)C2 [Example 88, 6,6-dimethyl-3-{[2-(propan-2-yl)phenyl]amino}-2-(pyridin-4-yl)-1,5,6,7-tetrahydro-4H-indol-4-one]

From patent US10428044B2, “3-amino-1,5,6,7-tetrahydro-4H-indol-4-ones” (Bayer Pharma Aktiengesellschaft, priority 2014, dated 2019)
